# Patent US12264139B2, “Aryl sulfonamides as BLT1 antagonists” (Merck Sharp & Dohme LLC, priority 2015, dated 2025)
# Molecular target: T1, human BLT1 receptor (Homo sapiens, UniProt Q15722)
# T1 construct: expressed in transfected cells; host or cells: HEK293
# Assay: BLT-1 cAMP Assay
# Type: cell-based
# Conditions: HEK293 cells recombinantly expressing human BLT1; antagonist activity vs forskolin 4 μM and LTB4 2 nM; cAMP (CisBio kit)
# Protocol: The ability of compounds to antagonize the human BLT1 receptor was determined using a kit to measure changes in intracellular cyclic AMP levels (cAMP dynamic assay kit, Cisbio Cat. No. 62AM4PEC). […] The cell suspension was centrifuged at 200×g for 10 min and then resuspended in fresh assay medium to a density of 2.5×10^5 cells/mL. […] All subsequent liquid additions were performed using a BIORAPTR (FRD; Beckman Coulter). Next, 5 μL of cell suspension was added and incubated for 20 min. at 37° C. and 5% CO2 in a humidified plastic tray.
# The levels of cAMP were detected using the CisBio kit following the manufacturer's instructions: cAMP-d2 vial was reconstituted with distilled water and then diluted accordingly with conjugate & lysis buffer. 5 µL of cAMP-d2 working solution was added to all of the wells of the assay plate. cAMP-Cryptate vial was reconstituted with distilled water and then diluted accordingly with conjugate & lysis buffer. 5 µL of cAMP-Cryptate working solution were added to the assay plate. The assay plate was shaken for 3 minutes and incubated at room temperature for 45 minutes, then read on Perkin Elmer Envision. cAMP standard curve and fit data were plotted using a 4 parameter dose response curve fitting algorithm to fit curve. […] After normalization to treated and untreated controls, the percent effect of signal at each compound concentration was calculated. The plot of percent effect versus the log of compound concentration was fit with a 4-parameter concentration response equation to calculate EC50 values.
# T1 sequence (Q15722 whole entry): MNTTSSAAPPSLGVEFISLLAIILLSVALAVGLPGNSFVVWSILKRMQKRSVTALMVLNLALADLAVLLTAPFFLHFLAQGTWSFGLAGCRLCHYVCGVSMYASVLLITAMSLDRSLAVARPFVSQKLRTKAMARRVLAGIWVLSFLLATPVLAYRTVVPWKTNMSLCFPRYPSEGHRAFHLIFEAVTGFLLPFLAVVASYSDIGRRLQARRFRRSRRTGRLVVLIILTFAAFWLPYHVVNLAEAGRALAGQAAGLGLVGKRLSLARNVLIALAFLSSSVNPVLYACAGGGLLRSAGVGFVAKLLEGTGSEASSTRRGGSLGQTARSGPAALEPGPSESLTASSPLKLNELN
row,EC50,SMILES
1,414 nM,"CS(=O)(=O)Nc1ccccc1-c1ccc2c(c1)OCC(Cc1ccccn1)C2O (racemic) [Example 30, N-(2-((3,4-Rac-trans)-4-hydroxy-3-(pyridin-2-ylmethyl)chroman-7-yl)phenyl)methanesulfonamide]"
2,1370 nM,"O=S(=O)(Nc1ccccc1-c1ccc2c(c1)OC[C@@H](Cc1cscn1)[C@H]2O)C(F)(F)F (racemic) [Example 31, 1,1,1-trifluoro-N-(2-(3,4-rac-cis)-4-hydroxy-3-(thiazol-4-ylmethyl)chroman-7-yl)phenyl)methanesulfonamide]"
3,17 nM,"O=S(=O)(Nc1ccccc1-c1ccc2c(c1)OC[C@@H](Cc1cscn1)[C@@H]2O)C(F)(F)F (racemic) [Example 32, 1,1,1-trifluoro-N-(2-((3,4-rac-trans)-4-hydroxy-3-(thiazol-4-ylmethyl)chroman-7-yl)phenyl)methanesulfonamide]"
4,53 nM,"O=S(=O)(Nc1ccccc1-c1ccc2c(c1)OCC(Cc1cccs1)C2O)C(F)(F)F (racemic) [Example 33, 1,1,1-Trifluoro-N-(2-((3,4-rac-trans)-4-hydroxy-3-(thiophen-2-ylmethyl)chroman-7-yl)phenyl)methanesulfonamide]"
5,44 nM,"O=S(=O)(Nc1ccccc1-c1ccc2c(c1)OCC(Cc1cc3ccccc3s1)C2O)C(F)(F)F (racemic) [Example 34, N-(2-((3,4-rac-trans)-3-(benzo[b]thiophen-2-ylmethyl)-4-hydroxychroman-7-yl)phenyl)-1,1,1-trifluoromethanesulfonamide]"
6,824 nM,"Cn1nc(-c2ccccc2)cc1C[C@H]1COc2cc(-c3ccccc3NS(=O)(=O)C(F)(F)F)ccc2[C@@H]1O (racemic) [Example 35, 1,1,1-Trifluoro-N-(2-((rac-trans)-4-hydroxy-3-((1-methyl-3-phenyl-1H-pyrazol-5-yl)methyl)chroman-7-yl)phenyl)methanesulfonamide]"
7,4 nM,"O=S(=O)(Nc1ccccc1-c1ccc2c(c1)OC[C@@H](Cc1ccc(-c3ccccc3)cn1)[C@@H]2O)C(F)(F)F (racemic) [Example 38, 1,1,1-Trifluoro-N-(2-{(rac-trans)-4-hydroxy-3-((5-phenylpyridin-2-yl)methyl)chroman-7-yl)phenyl)methanesulfonamide]"
8,225 nM,"O=S(=O)(Nc1ccccc1-c1ccc2c(c1)OC[C@@H](Cc1cnc(-c3ccccc3)s1)[C@@H]2O)C(F)(F)F (racemic) [Example 41, 1,1,1-Trifluoro-N-(2-((rac-trans)-4-hydroxy-3-((2-phenylthiazol-5-yl)methyl)chroman-7-yl)phenyl)methanesulfonamide]"
9,4050 nM,"O=S(=O)(Nc1nccnc1-c1ccc2c(c1)OCC(Cc1ccccn1)C2O)C(F)(F)F (racemic) [Example 74, 1,1,1-Trifluoro-N-(3-((3,4-rac-trans)-4-hydroxy-3-(pyridin-2-ylmethyl)chroman-7-yl)pyrazin-2-yl)methanesulfonamide]"
10,1550 nM,"O=S(=O)(Nc1ccccc1-c1ccc2c(c1)OC[C@@H](Cc1nnc(-c3ccc(F)cc3)o1)[C@@H]2O)C(F)(F)F (relative stereo) [Example 44, 1,1,1-Trifluoro-N-(2-((3,4-trans)-3-((5-(4-fluorophenyl)-1,3,4-oxadiazol-2-yl)methyl)-4-hydroxychroman-7-yl)phenyl)methanesulfonamide]"
11,1430 nM,"CC(C)(C)c1nc(C[C@@H]2COc3cc(-c4ccccc4NS(=O)(=O)C(F)(F)F)ccc3[C@H]2O)cs1 (relative stereo) [Example 45, N-(2-((3,4-trans)-3-((2-(tert-butyl)thiazol-4-yl)methyl)-4-hydroxychroman-7-yl)phenyl)-1,1,1-trifluoromethanesulfonamide]"
12,412 nM,"O=S(=O)(Nc1ccccc1-c1ccc2c(c1)OC[C@@H](Cc1ccncc1)[C@@H]2O)C(F)(F)F (single isomer, unassigned) [Example 25, 1,1,1-trifluoro-N-{2-[(3R,4S or 3S,4R)-4-hydroxy-3-(pyridin-4-ylmethyl)-3,4-dihydro-2H-chromen-7-yl]phenyl}methanesulfonamide]"
13,121 nM,"O=S(=O)(Nc1ccccc1-c1ccc2c(c1)OC[C@H](Cc1ccncc1)[C@H]2O)C(F)(F)F (single isomer, unassigned) [Example 26, 1,1,1-trifluoro-N-{2-[(3S,4R or 3R,4S)-4-hydroxy-3-(pyridin-4-ylmethyl)-3,4-dihydro-2H-chromen-7-yl]phenyl}methanesulfonamide]"
14,737 nM,"Cn1nc(-c2ccccc2)cc1C[C@H]1COc2cc(-c3ccccc3NS(=O)(=O)C(F)(F)F)ccc2[C@@H]1O (single isomer, unassigned) [Example 36, 1,1,1-Trifluoro-N-(2-((3S,4R or 3R,4S)-4-hydroxy-3-((1-methyl-3-phenyl-1H-pyrazol-5-yl)methyl)chroman-7-yl)phenyl)methanesulfonamide]"
15,754 nM,"Cn1nc(-c2ccccc2)cc1C[C@@H]1COc2cc(-c3ccccc3NS(=O)(=O)C(F)(F)F)ccc2[C@H]1O (single isomer, unassigned) [Example 37, 1,1,1-Trifluoro-N-(2-((3R,4S or 3S,4R)-4-hydroxy-3-((1-methyl-3-phenyl-1H-pyrazol-5-yl)methyl)chroman-7-yl)phenyl)methanesulfonamide]"
16,1 nM,"O=S(=O)(Nc1ccccc1-c1ccc2c(c1)OC[C@H](Cc1ccc(-c3ccccc3)cn1)[C@H]2O)C(F)(F)F (single isomer, unassigned) [Example 39, (2-((3S,4R or 3R,4S)-4-hydroxy-3-((5-phenylpyridin-2-yl)methyl)chroman-7-yl)phenyl)((trifluoromethyl)sulfonyl)amide]"
17,18 nM,"O=S(=O)(Nc1ccccc1-c1ccc2c(c1)OC[C@@H](Cc1ccc(-c3ccccc3)cn1)[C@@H]2O)C(F)(F)F (single isomer, unassigned) [Example 40, (2-((3R,4S or 3S,4R)-4-hydroxy-3-((5-phenylpyridin-2-yl)methyl)chroman-7-yl)phenyl)((trifluoromethyl)sulfonyl)amide]"
18,445 nM,"O=S(=O)(Nc1ccccc1-c1ccc2c(c1)OC[C@@H](Cc1cnc(-c3ccccc3)s1)[C@@H]2O)C(F)(F)F (single isomer, unassigned) [Example 42, 1,1,1-Trifluoro-N-(2-((3S,4R or 3R,4S)-4-hydroxy-3-((2-phenylthiazol-5-yl)methyl)chroman-7-yl)phenyl)methanesulfonamide]"
19,64 nM,"O=S(=O)(Nc1ccccc1-c1ccc2c(c1)OC[C@H](Cc1cnc(-c3ccccc3)s1)[C@H]2O)C(F)(F)F (single isomer, unassigned) [Example 43, 1,1,1-Trifluoro-N-(2-((3R,4S or 3S,4R)-4-hydroxy-3-((2-phenylthiazol-5-yl)methyl)chroman-7-yl)phenyl)methanesulfonamide]"
20,157 nM,"CCn1ccc(C[C@H]2COc3cc(-c4ccccc4NS(=O)(=O)C(F)(F)F)ccc3[C@@H]2O)n1 (single isomer, unassigned) [Example 46, N-(2-((3S,4R or 3R,4S)-3-((1-ethyl-1H-pyrazol-3-yl)methyl)-4-hydroxychroman-7-yl)phenyl)-1,1,1-trifluoromethanesulfonamide]"
21,1200 nM,"CCn1ccc(C[C@@H]2COc3cc(-c4ccccc4NS(=O)(=O)C(F)(F)F)ccc3[C@H]2O)n1 (single isomer, unassigned) [Example 47, N-(2-((3R,4S or 3S,4R)-3-((1-ethyl-1H-pyrazol-3-yl)methyl)-4-hydroxychroman-7-yl)phenyl)-1,1,1-trifluoromethanesulfonamide]"
22,29 nM,"O=S(=O)(Nc1ccccc1-c1ccc2c(c1)OC[C@H](Cc1cscn1)[C@H]2O)C(F)(F)F (single isomer, unassigned) [Example 50, 1,1,1-trifluoro-N-{2-[(3R,4S or 3S,4R)-4-hydroxy-3-(1,3-thiazol-4-ylmethyl)-3,4-dihydro-2H-chromen-7-yl]phenyl}-methanesulfonamide]"
23,808 nM,"O=S(=O)(Nc1ccccc1-c1ccc2c(c1)OC[C@@H](Cc1cscn1)[C@@H]2O)C(F)(F)F (single isomer, unassigned) [Example 51, 1,1,1-trifluoro-N-{2-[(3S,4R or 3R,4S)-4-hydroxy-3-(1,3-thiazol-4-ylmethyl)-3,4-dihydro-2H-chromen-7-yl]phenyl}-methanesulfonamide]"
24,4040 nM,"Cc1cnc(C[C@@H]2COc3cc(-c4ccccc4NS(=O)(=O)C(F)(F)F)ccc3[C@H]2O)s1 (single isomer, unassigned) [Example 52, 1,1,1-trifluoro-N-(2-{(3S,4R or 3R,4S)-4-hydroxy-3-[(5-methyl-1,3-thiazol-2-yl)methyl]-3,4-dihydro-2H-chromen-7-yl}phenyl)methanesulfonamide]"
25,69 nM,"Cc1cnc(C[C@H]2COc3cc(-c4ccccc4NS(=O)(=O)C(F)(F)F)ccc3[C@@H]2O)s1 (single isomer, unassigned) [Example 53, 1,1,1-trifluoro-N-(2-{(3R,4S or 3S,4R)-4-hydroxy-3-[(5-methyl-1,3-thiazol-2-yl)methyl]-3,4-dihydro-2H-chromen-7-yl}phenyl)methanesulfonamide]"
